Measured values reported in article PMC10204490, “Incubation Time Influences Organic Anion Transporter 1 Kinetics and Renal Clearance Predictions” (Journal of Xenobiotics, 2023).
Values belong to the compound of their own block, whether it stands above or below them.

Experiments:
OAT1 [1] = settings: cited from earlier work
OAT1 [2] = target: T1, OAT1 (Homo sapiens, UniProt Q4U2R8); assay: Inhibition of [3H]PAH uptake into CHO-OAT1 cells (IC50 determination); settings: IC50 for inhibition of [3H]PAH uptake, [3H]PAH 20 nM, mean ± SEM, n=4
T1 sequence (Q4U2R8 1-563): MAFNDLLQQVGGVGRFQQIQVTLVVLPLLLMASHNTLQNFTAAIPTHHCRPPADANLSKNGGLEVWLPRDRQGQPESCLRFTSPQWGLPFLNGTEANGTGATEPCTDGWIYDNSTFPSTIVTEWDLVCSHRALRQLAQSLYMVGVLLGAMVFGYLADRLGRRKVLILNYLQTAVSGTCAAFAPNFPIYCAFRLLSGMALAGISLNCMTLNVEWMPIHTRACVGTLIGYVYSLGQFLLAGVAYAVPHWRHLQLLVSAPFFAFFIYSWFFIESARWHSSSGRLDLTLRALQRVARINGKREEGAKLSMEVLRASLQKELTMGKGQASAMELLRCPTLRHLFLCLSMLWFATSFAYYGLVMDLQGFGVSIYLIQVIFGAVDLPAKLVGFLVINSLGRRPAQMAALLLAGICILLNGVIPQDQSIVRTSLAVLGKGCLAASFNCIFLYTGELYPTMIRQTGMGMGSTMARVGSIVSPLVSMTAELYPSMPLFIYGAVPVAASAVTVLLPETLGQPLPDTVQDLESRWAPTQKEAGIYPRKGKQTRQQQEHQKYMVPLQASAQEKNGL
Protocol: All cells were grown to confluence in 24-well flat bottom plates for transport experiments.
Transport experiments involved aspirating the media, rinsing the cells quickly once with WB (0.4 mL), and then adding the transport solution (0.4 mL) to the wells for an amount of time as indicated in the figure legends. Uptake was stopped by aspirating the transport buffer and rinsing the wells three times with ice-cold WB (0.4 mL). The cells were lysed in 0.5 N NaOH/1% sodium dodecyl sulfate (0.4 mL) for 30 min on an orbital shaker and the lysates neutralized with 1 N HCl (0.2 mL). […] Several wells not used for transport were used for determining the number of cells per well with a hemocytometer.
As above, transport inhibition experiments involved aspirating the media, rinsing the cells quickly once with WB (0.4 mL), and then adding the transport solution (0.4 mL) to the wells for an amount of time as indicated in the figure legends.
[I] is the concentration of inhibitor in the transport solution. […] Japp is the apparent maximal transport rate, and C has the same meaning as noted above.

OAT1 [3] = target: T1, OAT1; assay: Telmisartan pre-incubation and washout recovery of [3H]PAH uptake in CHO-OAT1 cells
[4] = cited from earlier work
[5] = design: method as in earlier work; settings: cited from earlier work
[6] = design: method as in earlier work; settings: measured; cited from earlier work

IC50 (OAT1 [2]; 15 sec incubation): 0.4 ± 0.07 µM | IC50 (OAT1 [2]; 10 min incubation): 0.06 ± 0.02 µM | Reversibility of OAT1 inhibition after washout (OAT1 [3]; 30 min pre-treatment with telmisartan 0.5 µM, washout in WB with 10% FBS, single experiment): reversible, albeit slowly
Structure (SMILES): CCCc1nc2c(C)cc(-c3nc4ccccc4n3C)cc2n1Cc1ccc(-c2ccccc2C(=O)O)cc1 [Telmisartan, telmisartan]
Inhibition mechanism at OAT1 (OAT1 [1]): non-competitive | Effect of pre-incubation time on OAT1 transport activity (OAT1 [3]; telmisartan 10, 50, 100 or 200 nM, pre-incubation 1, 5, 10 or 30 min, [3H]PAH uptake 15 s): decreased with increasing pre-incubation times

Structure (SMILES): COc1ccc2c(c1)c(CC(=O)O)c(C)n2C(=O)c1ccc(Cl)cc1 [Indomethacin, indomethacin]
Inhibition mechanism at OAT1 (OAT1 [1]): competitive

IC50 (OAT1 [2]; 15 sec incubation): 9.7 ± 0.8 µM | IC50 (OAT1 [2]; 10 min incubation): 9.2 ± 0.8 µM
Structure (SMILES): COc1ccc2[nH]c([S+]([O-])Cc3ncc(C)c(OC)c3C)nc2c1 (stereo not shown) [Omeprazole, omeprazole]
Inhibition mechanism at OAT1 (OAT1 [1]): mixed-type

Structure (SMILES): Nc1ccc(C(=O)NCC(=O)O)cc1 [PAH, Para-aminohippurate]
Clinically-observed plasma clearance (CLi.v.) ([4]; 10 mg ∙ kg-1 intravenous dose): 40.6 L/h | Observed Vss [4]: 0.23 L/kg | Percentage of the dose excreted into the urine as acetyl-PAH [4]: ~ 10% | Reduction in plasma clearance of PAH by co-administered probenecid ([4]; human subjects, probenecid 1 g oral dose): 1.8 fold | LogP [5]: -2.2 | pKa [5]: 3.83 | Fraction unbound in plasma (fup) [6]: 0.83
